Target: T1, Interleukin-1 receptor-associated kinase 4 (Homo sapiens, UniProt Q9NWZ3)
T1 sequence (Q9NWZ3 whole entry): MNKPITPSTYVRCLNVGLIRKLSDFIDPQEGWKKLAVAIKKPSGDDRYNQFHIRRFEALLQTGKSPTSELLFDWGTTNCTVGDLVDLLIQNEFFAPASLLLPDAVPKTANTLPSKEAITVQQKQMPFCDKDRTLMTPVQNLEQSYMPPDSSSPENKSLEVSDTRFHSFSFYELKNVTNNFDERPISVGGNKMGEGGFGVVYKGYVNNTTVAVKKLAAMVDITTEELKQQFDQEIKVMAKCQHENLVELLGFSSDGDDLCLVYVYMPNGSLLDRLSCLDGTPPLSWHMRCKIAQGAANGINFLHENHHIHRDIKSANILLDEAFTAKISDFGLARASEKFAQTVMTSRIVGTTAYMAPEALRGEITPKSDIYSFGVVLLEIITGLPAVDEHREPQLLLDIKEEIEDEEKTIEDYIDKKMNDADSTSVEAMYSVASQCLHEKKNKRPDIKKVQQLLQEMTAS
Test: IRAK4 Biochemical Assay: IRAK4 enzyme (Carna Biosciences, Chuo-ku, Kobe, Japan) activity was measured by detecting phosphorylated peptide substrate formation using an antibody against the phosphorylated peptide substrate. This is a time-resolved fluorescence resonance energy transfer (TR-FRET) immunoassay, based on the STK1 KinEASE Assay (Cisbio, Bedford, Mass.). The assay was designed as a simple two-step, endpoint assay (a 5 μl enzyme reaction followed by 5 μl stop and detect Solution) performed in ProxiPlate-384 Plus plates (Perkin Elmer, Waltham, Mass.). Staurosporine, a non-selective kinase inhibitor was used as a positive control. Compounds diluted in DMSO were spotted into 384 well plates using a Labcyte® Echo 550 Liquid Handling System prior to addition of IRAK4 enzyme and peptide substrate. Reaction solutions were delivered using a Multi-Flo (Bio-Tek Instruments). The enzyme and peptide solution was incubated with compound for 15 minutes at room temp before the reaction was initiated by the addition of ATP. The standard 5 μl reaction mixture contained 500 μM ATP, 2 μM peptide (STK1 Peptide), 0.75 nM of IRAK4 in reaction buffer (50 mM HEPES, pH 7.0, 0.02% NaN3, 0.01% BSA, 0.1 mM Orthovanadate, 5 mM MgCl2, 0.025% NP-40, 1 mM DTT). […]

IC50: < 1 nM
SMILES: COC(=O)NC[C@H]1C[C@H](Nc2cc(-c3ccc4cc(C#N)cnn34)ncc2-c2cn([C@H]3CC[C@H](NC(=O)N4CCOCC4)CC3)nn2)C1
